Results as given in US20260166159A1, “KRAS G12D DEGRADATION AGENT, AND PREPARATION METHOD AND USE THEREFOR” (LEADINGTAC PHARMACEUTICAL (SHAOXING) CO., LTD., priority 2022, published 2026).

Biological target: T1, KRAS-G12D (Homo sapiens, UniProt P01116, G12D)
T1 construct: endogenous in cells; host or cells: A-427 (ATCC), AGS, AsPc-1, Panc 04.03
Assay: KRAS-G12D degradation assay (Western Blot), A-427 cells
Format: cell-based
Conditions: A427 cells, 24 h, class symbols; for Dmax: A-427
Method in brief: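 Each KRAS G12D mutant line (A-427, AGS, AsPc-1, Panc 04.03) was seeded at 5×10^5 cells/well and treated 24 h at 37 °C with 0.03–3000 nM compound (final DMSO 0.25%). KRAS in lysates was measured by Western blot, normalized to β-actin and compared with controls, giving DC50 and Dmax from curve fits.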

T1 sequence (P01116 1-188 isoform P01116-2 G12D): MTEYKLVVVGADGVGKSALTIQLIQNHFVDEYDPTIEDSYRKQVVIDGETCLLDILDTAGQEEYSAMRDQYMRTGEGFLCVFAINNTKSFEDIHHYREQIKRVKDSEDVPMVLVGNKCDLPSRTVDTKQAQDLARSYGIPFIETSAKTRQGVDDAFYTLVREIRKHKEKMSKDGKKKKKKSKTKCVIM

| Structure (SMILES) | DC50 [µM] | Dmax [%] |
| --- | --- | --- |
| CCc1cccc2cc(O)cc(-c3ncc4c(N5CC6CCC(C5)N6)nc(OCC5(CN6CCN(CCCC7CCN(C(=O)c8ccc(Cl)c(N9CCC(=O)NC9=O)c8)CC7)CC6)CC5)nc4c3F)c12 [Example 19, 1-(5-(4-(3-(4-((1-(((4-(3,8-diazabicyclo[3.2.1]octan-3-yl)-7-(8-ethyl-3-hydroxynaphthalen-1-yl)-8-fluoropyrido[4,3-d]pyrimidin-2-yl)oxy)methyl)cyclopropyl)methyl)piperazin-1-yl)propyl)piperidine-1-carbonyl)-2-chlorophenyl)dihydropyrimidine-2,4(1H,3H)-dione] | 0.05 to 0.1 | 80 to 100 |
| C#Cc1c(F)ccc2cc(O)cc(-c3ncc4c(N5CC6CCC(C5)N6)nc(OCC5(CN6CCN(CC7CCC8(CC7)CCN(C(=O)c7ccc(OC)c(N9CCC(=O)NC9=O)c7)CC8)CC6)CC5)nc4c3F)c12 [Example 14, 1-(5-(9-((4-((1-(((4-(3,8-diazabicyclo[3.2.1]octan-3-yl)-7-(8-ethynyl-7-fluoro-3-hydroxynaphthalen-1-yl)-8-fluoropyrido[4,3-d]pyrimidin-2-yl)oxy)methyl)cyclopropyl)methyl)piperazin-1-yl)methyl)-3-azaspiro[5.5]undecane-3-carbonyl)-2-methoxyphenyl)dihydropyrimidine-2,4(1H,3H)-dione] | ≤ 0.05 | 80 to 100 |
| C#Cc1c(F)ccc2cc(O)cc(-c3ncc4c(N5CC6CCC(C5)N6)nc(OCC5(CN6CCN(CCCC7CCN(C(=O)c8ccc(Cl)c(N9CCC(=O)NC9=O)c8)CC7)CC6)CCC5)nc4c3F)c12 [Example 24, 1-(5-(4-(3-(4-((1-(((4-(3,8-diazabicyclo[3.2.1]octan-3-yl)-7-(8-ethynyl-7-fluoro-3-hydroxynaphthalen-1-yl)-8-fluoropyrido[4,3-d]pyrimidin-2-yl)oxy)methyl)cyclobutyl)methyl)piperazin-1-yl)propyl)piperidine-1-carbonyl)-2-chlorophenyl)dihydropyrimidine-2,4(1H,3H)-dione] | ≤ 0.05 | 80 to 100 |
| C#Cc1c(F)ccc2cc(O)cc(-c3ncc4c(N5CC6CCC(C5)N6)nc(OCC5(CN6CCN(CCC7CCC8(CC7)CCN(C(=O)c7ccc(Cl)c(N9CCC(=O)NC9=O)c7)CC8)CC6)CC5)nc4c3F)c12 [Example 18, 1-(5-(9-(2-(4-((1-(((4-(3,8-diazabicyclo[3.2.1]octan-3-yl)-7-(8-ethynyl-7-fluoro-3-hydroxynaphthalen-1-yl)-8-fluoropyrido[4,3-d]pyrimidin-2-yl)oxy)methyl)cyclopropyl)methyl)piperazin-1-yl)ethyl)-3-azaspiro[5.5]undecane-3-carbonyl)-2-chlorophenyl)dihydropyrimidine-2,4(1H,3H)-dione] | ≤ 0.05 | 80 to 100 |
| Cc1ccc2[nH]ncc2c1-c1ncc2c(N3CC4CCC(C3)N4)nc(OCC3(CN4CCN(CC5CCC6(CC5)CCN(C(=O)c5ccc(Cl)c(N7CCC(=O)NC7=O)c5)CC6)CC4)CC3)nc2c1F [Example 16, 1-(5-(9-((4-((1-(((4-(3,8-diazabicyclo[3.2.1]octan-3-yl)-8-fluoro-7-(5-methyl-1H-indazol-4-yl)pyrido[4,3-d]pyrimidin-2-yl)oxy)methyl)cyclopropyl)methyl)piperazin-1-yl)methyl)-3-azaspiro[5.5]undecane-3-carbonyl)-2-chlorophenyl)dihydropyrimidine-2,4(1H,3H)-dione] | 1 to 10 | 30 to 50 |
| C#Cc1c(F)ccc2cc(O)cc(-c3ncc4c(N5CC6CCC(C5)N6)nc(OCC5(CN6CCN(CCCCC7CCN(C(=O)c8ccc(Cl)c(N9CCC(=O)NC9=O)c8)CC7)CC6)CC5)nc4c3F)c12 [Example 5, 1-(5-(4-(4-(4-((1-(((4-(3,8-diazabicyclo[3.2.1]octan-3-yl)-7-(8-ethynyl-7-fluoro-3-hydroxynaphthalen-1-yl)-8-fluoropyrido[4,3-d]pyrimidin-2-yl)oxy)methyl)cyclopropyl)methyl)piperazin-1-yl)butyl)piperidine-1-carbonyl)-2-chlorophenyl)dihydropyrimidine-2,4(1H,3H)-dione] | ≤ 0.05 | 80 to 100 |
| C#Cc1c(F)ccc2cc(O)cc(-c3ncc4c(N5CC6CCC(C5)N6)nc(OCC5(CN6CCN(CCCC7CCN(C(=O)c8ccc(Cl)c(N9CCC(=O)NC9=O)c8)CC7)CC6)CC5)nc4c3F)c12 [Example 4, 1-(5-(4-(3-(4-((1-(((4-(3,8-diazabicyclo[3.2.1]octan-3-yl)-7-(8-ethynyl-7-fluoro-3-hydroxynaphthalen-1-yl)-8-fluoropyrido[4,3-d]pyrimidin-2-yl)oxy)methyl)cyclopropyl)methyl)piperazin-1-yl)propyl)piperidine-1-carbonyl)-2-chlorophenyl)dihydropyrimidine-2,4(1H,3H)-dione] | ≤ 0.05 | 80 to 100 |
| C#Cc1c(F)ccc2cc(O)cc(-c3ncc4c(N5CC6CCC(C5)N6)nc(OCC5(CN6CCN(CC7CCC8(CC7)CCN(C(=O)c7ccc(Cl)c(N9CCC(=O)N(C)C9=O)c7)CC8)CC6)CC5)nc4c3F)c12 [Example 17, 1-(5-(9-((4-((1-(((4-(3,8-diazabicyclo[3.2.1]octan-3-yl)-7-(8-ethynyl-7-fluoro-3-hydroxynaphthalen-1-yl)-8-fluoropyrido[4,3-d]pyrimidin-2-yl)oxy)methyl)cyclopropyl)methyl)piperazin-1-yl)methyl)-3-azaspiro[5.5]undecane-3-carbonyl)-2-chlorophenyl)-3-methyldihydropyrimidine-2,4(1H,3H)-dione] | 1 to 10 | < 30 |
| C#Cc1c(F)ccc2cc(O)cc(-c3ncc4c(N5CC6CCC(C5)N6)nc(OCC5(CN6CCN(CC7CCC8(CC7)CCN(C(=O)c7ccc(Br)c(N9CCC(=O)NC9=O)c7)CC8)CC6)CC5)nc4c3F)c12 [Example 29, 1-(5-(9-((4-((1-(((4-(3,8-diazabicyclo[3.2.1]octan-3-yl)-7-(8-ethynyl-7-fluoro-3-hydroxynaphthalen-1-yl)-8-fluoropyrido[4,3-d]pyrimidin-2-yl)oxy)methyl)cyclopropyl)methyl)piperazin-1-yl)methyl)-3-azaspiro[5.5]undecane-3-carbonyl)-2-bromophenyl)dihydropyrimidine-2,4(1H,3H)-dione] | ≤ 0.05 | 80 to 100 |
| CCc1c(F)ccc2cc(O)cc(-c3ncc4c(N5CC6CCC(C5)N6)nc(OCC5(CN6CCN(CC7CCC8(CC7)CCN(C(=O)c7ccc(Cl)c(N9CCC(=O)NC9=O)c7)CC8)CC6)CC5)nc4c3F)c12 [Example 30, 1-(5-(9-((4-((1-(((4-(3,8-diazabicyclo[3.2.1]octan-3-yl)-7-(8-ethyl-7-fluoro-3-hydroxynaphthalen-1-yl)-8-fluoropyrido[4,3-d]pyrimidin-2-yl)oxy)methyl)cyclopropyl)methyl)piperazin-1-yl)methyl)-3-azaspiro[5.5]undecane-3-carbonyl)-2-chlorophenyl)dihydropyrimidine-2,4(1H,3H)-dione] | ≤ 0.05 | 50 to 80 |
| C#Cc1c(F)ccc2cc(O)cc(-c3ncc4c(N5CC6CCC(C5)N6)nc(OCC5(CN6CCN(CC7CCC8(CC7)CCN(C(=O)c7ccc(OC)c(N9CCC(=O)NC9=O)c7)CC8)CC6)CCC5)nc4c3F)c12 [Example 25, 1-(5-(9-((4-((1-(((4-(3,8-diazabicyclo[3.2.1]octan-3-yl)-7-(8-ethynyl-7-fluoro-3-hydroxynaphthalen-1-yl)-8-fluoropyrido[4,3-d]pyrimidin-2-yl)oxy)methyl)cyclobutyl)methyl)piperazin-1-yl)methyl)-3-azaspiro[5.5]undecane-3-carbonyl)-2-methoxyphenyl)dihydropyrimidine-2,4(1H,3H)-dione] | ≤ 0.05 | 50 to 80 |
| C#Cc1c(F)ccc2cc(O)cc(-c3ncc4c(N5CC6CCC(C5)N6)nc(OCC56CC(CN7CCN(CC8CCC9(CC8)CCN(C(=O)c8ccc(Cl)c(N%10CCC(=O)NC%10=O)c8)CC9)CC7)(C5)C6)nc4c3F)c12 [Example 33, 1-(5-(9-((4-((3-(((4-(3,8-diazabicyclo[3.2.1]octan-3-yl)-7-(8-ethynyl-7-fluoro-3-hydroxynaphthalen-1-yl)-8-fluoropyrido[4,3-d]pyrimidin-2-yl)oxy)methyl)bicyclo[1.1.1]pentan-1-yl)methyl)piperazin-1-yl)methyl)-3-azaspiro[5.5]undecane-3-carbonyl)-2-chlorophenyl)dihydropyrimidine-2,4(1H,3H)-dione] | ≤ 0.05 | 80 to 100 |
| C#Cc1c(F)ccc2cc(O)cc(-c3ncc4c(N5CC6CCC(C5)N6)nc(OC[C@@H]5CCCN5CCC5CCC6(CC5)CCN(C(=O)c5ccc(Cl)c(N7CCC(=O)NC7=O)c5)CC6)nc4c3F)c12 [Example 32, 1-(5-(9-(2-((S)-2-(((4-(3,8-diazabicyclo[3.2.1]octan-3-yl)-7-(8-ethynyl-7-fluoro-3-hydroxynaphthalen-1-yl)-8-fluoropyrido[4,3-d]pyrimidin-2-yl)oxy)methyl)pyrrolidin-1-yl)ethyl)-3-azaspiro[5.5]undecane-3-carbonyl)-2-chlorophenyl)dihydropyrimidine-2,4(1H,3H)-dione] | 1 to 10 | < 30 |
| C#Cc1c(F)ccc2cc(O)cc(-c3ncc4c(N5CC6CCC(C5)N6)nc(OCC5(CN6CCN(CCC7CCN(C(=O)c8ccc(Cl)c(N9CCC(=O)NC9=O)c8)CC7)CC6)CC5)nc4c3F)c12 [Example 3, 1-(5-(4-(2-(4-((1-(((4-(3,8-diazabicyclo[3.2.1]octan-3-yl)-7-(8-ethynyl-7-fluoro-3-hydroxynaphthalen-1-yl)-8-fluoropyrido[4,3-d]pyrimidin-2-yl)oxy)methyl)cyclopropyl)methyl)piperazin-1-yl)ethyl)piperidine-1-carbonyl)-2-chlorophenyl)dihydropyrimidine-2,4(1H,3H)-dione] | ≤ 0.05 | 50 to 80 |
